# Experimental data from US20230015949A1, “NEISSERIA TREATMENT USING CANNABINOIDS” (priority 2019, published 2023).
# Where two headings read alike, the source gives them in different places.
# Key:
# [1] = test system: Staphylococcus aureus ATCC 29213; test: Broth microdilution MIC assay, quality control strain (Example 2); format: cell-based; conditions: ATCC29213, S. aureus ATCC 29213 (QC), CAMHB
# Protocol: (§1) Following incubation, colonies were harvested from these plates and cell suspensions prepared and frozen at −80° C. with a cryoprotectant. Prior to testing, N. gonorrhoeae isolates were streaked onto Chocolate Agar [Becton Dickinson, (BD), Sparks, Md.; Lot No. 922807]; Staphylococcus aureus ATCC 29213 tested for quality control (QC) purposes was streaked onto Trypticase Soy Agar with 5% Sheep Blood (TSA II; BD; Lot No. 9219399).
# Cation-adjusted Mueller Hinton broth (CAMHB; BD; Lot No. 9019592) was used for MIC testing of S. aureus ATCC 29213 for QC purposes.
# (§2) MIC values were determined using a broth microdilution procedure described by CLSI (1, 2). Automated liquid handlers (Multidrop 384, Labsystems, Helsinki, Finland; Biomek 2000 and Biomek FX, Beckman Coulter, Fullerton Calif.) were used to conduct serial dilutions and liquid transfers.
# (§3) To prepare the drug mother plates, which would provide the serial drug dilutions for the replicate daughter plates, the wells of columns 2 through 12 of standard 96-well microdilution plates (Costar 3795) were filled with 150 μl of the designated diluent for each row of drug. The test articles and comparator compounds (300 μl at 100× the highest concentration to be tested) were dispensed into the appropriate wells in column 1. The Biomek 2000 was then used to make 2-fold serial dilutions in the mother plates from column 1 through column 11. The wells of column 12 contained no drug and served as the organism growth control wells for the assay.
# (§4) The daughter plates were loaded with 190 μL per well of the appropriate test medium for the tested organism using the Multidrop 384. The daughter plates were completed on the Biomek FX instrument which transferred 2 μL of drug solution from each well of a mother plate to the corresponding well of each daughter plate in a single step. Daughter plates for the testing of anaerobes were allowed to pre-reduce in the Bactron II anaerobe chamber for 2 hr prior to inoculation.
# A standardized inoculum of each test organism was prepared per CLSI methods (1, 2). The inoculum for each organism was dispensed into sterile reservoirs divided by length (Beckman Coulter), and the Biomek 2000 was used to inoculate the plates. Daughter plates were placed on the Biomek 2000 work surface in reverse orientation so that inoculation took place from low to high drug concentration. Anaerobic organisms were inoculated by hand in the Bactron II anaerobic chamber. Bacterial plates were then inoculated with 10 μL of the inoculum resulting in a final cell density of approximately 5×10^5 CFU/mL.
# Plates were stacked 3 to 4 high, covered with a lid on the top plate and placed in plastic bags. […] The MIC was read and recorded as the lowest concentration of drug that inhibited visible growth of the organism.
# Neisseria gonorrhoeae = test: Broth microdilution MIC assay, 30 isolates (Example 2); format: cell-based
# Protocol: In this study, the in vitro spectrum of activity of CBD was determined against 30 isolates comprised of reference strains from the WHO, isolates from the CDC antibiotic resistance bank, and clinical isolates from the Micromyx (MMX) repository, with different resistance phenotypes. Assays were conducted following guidelines recommended by the Clinical and Laboratory Standards Institute (CLSI; 1, 2) with the exception that broth microdilution was used instead of agar dilution.
# Stock solutions of all compounds were prepared on the day of testing using solvents recommended by CLSI. Stock solutions of all compounds were made at 101× the final testing concentration. CBD was supplied by Cerilliant (Round Rock, Tex.) as a 1 mg/mL methanolic solution which was stored at −20° C. after receipt. Prior to testing, using a 5 mL aliquot of the CBD methanolic solution, the methanol was dried off and the residual CBD was resuspended in 774 μL DMSO resulting in a 6.464 mg/mL solution.
# The test organisms evaluated in this study consisted of Neisseria gonorrhoeae isolates from the Micromyx repository and reference isolates from the American Type Culture Collection (ATCC; Manassas, Va.), Centers for Disease Control and Prevention (CDC; Atlanta, Ga.) or the National Collection of Type Cultures (NCTC; Public Health England, Salisbury, UK). Upon initial receipt at Micromyx, the organisms were sub-cultured onto an appropriate agar medium.
# as §1
# For N. gonorrhoeae, a modified medium described by the ATCC as capable of supporting the growth of N. gonorrhoeae (Neisseria peptone medium) was used for the broth microdilution MIC assay. This medium contained 15 g Oxoid Special Peptone (Lot No. 1280296; Oxoid, Hampshire, UK), 1 g corn starch (Lot No. AD-13344-14; Ward's Science; Rochester, N.Y.), 5 g NaCl (Lot No. 57897; VWR, Radnor, Pa.), 4 g K2HPO4 (Lot No. SLBT7061; Sigma), and 1 g KH2PO4 (Lot No. SLBC1921V; Sigma). After autoclaving, the medium was centrifuged at 5,000×g for 10 min, the supernatant was passed through a 0.45 μm filter, and IsoVitaleX supplement (Lot No. 8323954; BD) was added at 1% (v/v).
# as §2, §3, §4
# [2] = test system: Staphylococcus aureus ATCC 29213; conditions: S. aureus ATCC 29213, CLSI QC ranges shown in parentheses, cited from earlier work
# [3] = 30 isolates of N. gonorrhoeae, broth microdilution, MIC distribution
# [4] = 30 isolates, broth dilution assay, MIC distribution (Table 6)
smiles,measurement,setting,value
"CC[C@H]1OC(=O)[C@H](C)[C@@H](O[C@H]2C[C@@](C)(OC)[C@@H](O)[C@H](C)O2)[C@H](C)[C@@H](O[C@@H]2O[C@H](C)C[C@H](N(C)C)[C@H]2O)[C@](C)(O)C[C@@H](C)CN(C)[C@H](C)[C@@H](O)[C@]1(C)O [AZI, azithromycin]",MIC,[1],0.5 µg/mL
same,MIC,Neisseria gonorrhoeae,0.25 µg/mL
same,MIC90,"Neisseria gonorrhoeae; 30 isolates of N. gonorrhoeae, broth microdilution",>8 µg/mL
same,Number of isolates at MIC value 0.015 μg/mL,Neisseria gonorrhoeae; [3],0
same,Number of isolates at MIC value 0.03 μg/mL,Neisseria gonorrhoeae; [3],0
same,Number of isolates at MIC value 0.06 μg/mL,Neisseria gonorrhoeae; [3],2
same,Number of isolates at MIC value 0.5 μg/mL,Neisseria gonorrhoeae; [3],2
same,Number of isolates at MIC value 1 μg/mL,Neisseria gonorrhoeae; [3],1
same,Number of isolates at MIC value 2 μg/mL,Neisseria gonorrhoeae; [3],2
same,Number of isolates at MIC value 4 μg/mL,Neisseria gonorrhoeae; [3],1
same,Number of isolates at MIC value 8 μg/mL,Neisseria gonorrhoeae; [3],1
same,Number of isolates at MIC value >8 μg/mL,Neisseria gonorrhoeae; [3],4
same,Number of isolates at MIC 0.08 μg mL^−1,Neisseria gonorrhoeae; [4],0
same,Number of isolates at MIC ≤0.004 μg mL^−1,Neisseria gonorrhoeae; [4],0
same,MIC,"Neisseria gonorrhoeae; Neisseria gonorrhoeae, ATCC49226, N. gonorrhoeae ATCC 49226 (QC), broth microdilution, read-out: MIC",0.25 µg/mL
same,MIC,"Neisseria gonorrhoeae; Neisseria gonorrhoeae, N. gonorrhoeae CDC 0165 (CIP-R, AZI MIC 1), broth microdilution, read-out: MIC",1 µg/mL
same,MIC,"Neisseria gonorrhoeae; Neisseria gonorrhoeae, N. gonorrhoeae CDC 0166 (CIP-R, AZI MIC 1), broth microdilution, read-out: MIC",0.5 µg/mL
same,MIC,"Neisseria gonorrhoeae; Neisseria gonorrhoeae, N. gonorrhoeae CDC 0167 (CIP-S, AZI MIC 8), broth microdilution, read-out: MIC",> 8 µg/mL
same,MIC,"Neisseria gonorrhoeae; Neisseria gonorrhoeae, N. gonorrhoeae CDC 0172 (CIP-R, AZI MIC 0.5), broth microdilution, read-out: MIC",0.25 µg/mL
same,MIC,"Neisseria gonorrhoeae; Neisseria gonorrhoeae, N. gonorrhoeae CDC 0175 (CIP-S, AZI MIC 16), broth microdilution, read-out: MIC",> 8 µg/mL
same,MIC,"Neisseria gonorrhoeae; Neisseria gonorrhoeae, N. gonorrhoeae CDC 0177 (CIP-S, AZI MIC 2), broth microdilution, read-out: MIC",2 µg/mL
same,MIC,"Neisseria gonorrhoeae; Neisseria gonorrhoeae, N. gonorrhoeae CDC 0181 (CIP-S, AZI MIC 256), broth microdilution, read-out: MIC",> 8 µg/mL
same,MIC,"Neisseria gonorrhoeae; Neisseria gonorrhoeae, N. gonorrhoeae CDC 0194 (CRO-NS, CIP-S, AZI MIC 0.5), broth microdilution, read-out: MIC",0.25 µg/mL
same,MIC,"Neisseria gonorrhoeae; Neisseria gonorrhoeae, N. gonorrhoeae MMX 6921 (CIP-R), broth microdilution, read-out: MIC",8 µg/mL
same,MIC,"Neisseria gonorrhoeae; Neisseria gonorrhoeae, N. gonorrhoeae MMX 6938 (CIP-S), broth microdilution, read-out: MIC",0.25 µg/mL
same,MIC,"Neisseria gonorrhoeae; Neisseria gonorrhoeae, N. gonorrhoeae MMX 10409 (CIP-R), broth microdilution, read-out: MIC",0.25 µg/mL
same,MIC,"Neisseria gonorrhoeae; Neisseria gonorrhoeae, N. gonorrhoeae MMX 10410 (CIP-S), broth microdilution, read-out: MIC",0.12 µg/mL
same,MIC,"Neisseria gonorrhoeae; Neisseria gonorrhoeae, N. gonorrhoeae MMX 10447 (CIP-S), broth microdilution, read-out: MIC",0.06 µg/mL
same,MIC,"Neisseria gonorrhoeae; Neisseria gonorrhoeae, N. gonorrhoeae MMX 10450 (CIP-S), broth microdilution, read-out: MIC",0.12 µg/mL
same,MIC,"Neisseria gonorrhoeae; Neisseria gonorrhoeae, N. gonorrhoeae MMX 10452 (CIP-R), broth microdilution, read-out: MIC",0.12 µg/mL
same,MIC,"Neisseria gonorrhoeae; Neisseria gonorrhoeae, N. gonorrhoeae MMX 10454 (CIP-R), broth microdilution, read-out: MIC",0.12 µg/mL
same,MIC,"Neisseria gonorrhoeae; Neisseria gonorrhoeae, NCTC13477, N. gonorrhoeae NCTC 13477 (WHO F; CIP-S, AZI MIC […]), broth microdilution, read-out: MIC",0.06 µg/mL
same,MIC,"Neisseria gonorrhoeae; Neisseria gonorrhoeae, NCTC13478, N. gonorrhoeae NCTC 13478 (WHO G; CIP-I, AZI MIC […]), broth microdilution, read-out: MIC",0.25 µg/mL
same,MIC,"Neisseria gonorrhoeae; Neisseria gonorrhoeae, NCTC13479, N. gonorrhoeae NCTC 13479 (WHO K; CIP-R, AZI MIC […]), broth microdilution, read-out: MIC",0.25 µg/mL
same,MIC,"Neisseria gonorrhoeae; Neisseria gonorrhoeae, NCTC13480, N. gonorrhoeae NCTC 13480 (WHO L; CIP-R, AZI MIC 0.5), broth microdilution, read-out: MIC",0.25 µg/mL
same,MIC,"Neisseria gonorrhoeae; Neisseria gonorrhoeae, NCTC13481, N. gonorrhoeae NCTC 13481 (WHO M; CIP-R, AZI MIC […]), broth microdilution, read-out: MIC",0.12 µg/mL
same,MIC,"Neisseria gonorrhoeae; Neisseria gonorrhoeae, NCTC13482, N. gonorrhoeae NCTC 13482 (WHO N; CIP-R, AZI MIC […]), broth microdilution, read-out: MIC",0.12 µg/mL
same,MIC,"Neisseria gonorrhoeae; Neisseria gonorrhoeae, NCTC13483, N. gonorrhoeae NCTC 13483 (WHO O; CIP-S, AZI MIC […]), broth microdilution, read-out: MIC",0.25 µg/mL
same,MIC,"Neisseria gonorrhoeae; Neisseria gonorrhoeae, NCTC13484, N. gonorrhoeae NCTC 13484 (WHO P; CIP-S, AZI MIC 4), broth microdilution, read-out: MIC",4 µg/mL
same,MIC,"Neisseria gonorrhoeae; Neisseria gonorrhoeae, NCTC13817, N. gonorrhoeae NCTC 13817 (WHO U; CIP-S, AZI MIC 4), broth microdilution, read-out: MIC",2 µg/mL
same,MIC,"Neisseria gonorrhoeae; Neisseria gonorrhoeae, NCTC13818, N. gonorrhoeae NCTC 13818 (WHO V; CIP-R, AZI MIC >256), broth microdilution, read-out: MIC",> 8 µg/mL
same,MIC,"Neisseria gonorrhoeae; Neisseria gonorrhoeae, NCTC13819, N. gonorrhoeae NCTC 13819 (WHO W; CIP-R, AZI MIC 0.5), broth microdilution, read-out: MIC",0.25 µg/mL
same,MIC,"Neisseria gonorrhoeae; Neisseria gonorrhoeae, NCTC13820, N. gonorrhoeae NCTC 13820 (WHO X; CRO-NS, CIP-R, AZI MIC 0.5), broth microdilution, read-out: MIC",0.25 µg/mL
same,MIC,"Neisseria gonorrhoeae; Neisseria gonorrhoeae, NCTC13821, N. gonorrhoeae NCTC 13821 (WHO Y; CIP-R, AZI MIC 1), broth microdilution, read-out: MIC",0.5 µg/mL
same,MIC50,"Neisseria gonorrhoeae; Neisseria gonorrhoeae, 30 isolates of N. gonorrhoeae, broth microdilution, read-out: MIC50",0.25 µg/mL
same,MIC90,"Neisseria gonorrhoeae; Neisseria gonorrhoeae, 30 isolates of N. gonorrhoeae, broth microdilution, read-out: MIC90",> 8 µg/mL
same,MIC,"Neisseria gonorrhoeae; Neisseria gonorrhoeae, 30 isolates of N. gonorrhoeae, broth microdilution, read-out: MIC Mode",0.25 µg/mL
same,CLSI QC range of MIC,[2],0.5 to 2 µg/mL
same,CLSI QC range of MIC,[2]; listed as Azithromycin,(0.5-2)^1 μg/mL
